Measured values published in EP0097071A1, “Benzhydryl sulfinylacetamide derivatives and their therapeutical use” (LABORATOIRE L. LAFON Société anonyme dite:, priority 1982, dated 1983).

How the values were obtained:
rats = assay: Interaction with amphetamine (stereotypies); type: in vivo; settings: rat, 64 mg/kg i.p.
In short: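 Male rats, groups of 6, given test compound i.p. as aqueous gum arabic suspension; amphetamine 2 mg/kg i.p. injected 30 min later and stereotypies scored.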

souris [1] = assay: Intergroup aggressiveness; type: in vivo; settings: dose not stated
In short: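 Male mice, housed in groups of 3 on either side of an opaque partition for 3 weeks, received compound i.p. as a gum arabic suspension at 20 ml/kg. After 30 min the partition was removed, and fights were counted over 10 min.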

rat = assay: Interaction with apomorphine, rat; type: in vivo; settings: 64 mg/kg i.p.
In short: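 Groups of 6 male rats received test compound intraperitoneally as a suspension in aqueous gum arabic (5 ml/kg).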

homme = assay: Clinical trials; type: in vivo
Description: Les études cliniques ont porté sur les troubles de la vigilance, de l'éveil et des états confusionnels, d'une part, et sur les troubles de l'affectivité, du contact et des dépressions, d'autre part.

souris groupées = assay: Toxicity in grouped mice; settings: in vivo
souris [2] = assay: Motility reduced by hypoxic aggression (acute hypobaric anoxia); type: in vivo; settings: 32 mg/kg, mais surtout 128 mg/kg i.p.
In short: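 Male mice (10 per dose, 20 controls) got compound i.p. as an aqueous gum arabic suspension (20 ml/kg). Thirty minutes later they underwent acute hypobaric anoxia: 600 mm Hg depression over 90 s, then 45 s release. Motility was then recorded in an actimeter for 10 min.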

souris [3] = assay: Traction test; type: in vivo; settings: 0,5 h after administration, dose not stated
souris [4] = assay: Interaction with reserpine; type: in vivo; settings: 32 mg/kg, 64 mg/kg et 128 mg/kg i.p.
souris [5] = assay: Behavioural despair (forced immersion); type: in vivo; settings: 8 mg/kg, 32 mg/kg et 128 mg/kg i.p.
In short: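 Male mice were dosed i.p. with compound suspended in aqueous gum arabic at 20 ml/kg, 10 per dose. Thirty minutes later each mouse was put in a confined space holding 6 cm of water, and immobility time was scored from minute 2 to minute 6.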

souris [6] = assay: Asphyxic anoxia (gallamine triethiodide); type: in vivo; settings: dose not stated
In short: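 Male mice, 10 per dose, given compound i.p. as suspension in aqueous gum arabic (20 ml/kg). Gallamine triethiodide 32 mg/kg i.p. injected 30 min after compound.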

souris [7] = assay: Interaction with barbital (sleep); type: in vivo; settings: 32 mg/kg et 128 mg/kg i.p.
In short: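 Male mice (groups of 10) dosed intraperitoneally with compound suspended in aqueous gum arabic (20 ml/kg); barbital 220 mg/kg i.p. given half an hour later.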

souris [8] = assay: Interaction with oxotremorine; type: in vivo
In short: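 Groups of 6 male mice received test compound i.p. as a suspension in aqueous gum arabic (20 ml/kg).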

souris mâles = assay: Global behaviour and reactivities, mouse; type: in vivo
SNC = assay: Essential activity on the CNS (Tableau I and conclusions of the neuropsychopharmacological study); type: in vivo; settings: in vivo
Description: Dans le tableau I ci-après, on a consigné un certain nombre de composés selon la formule I de façon nullement limitative, en mentionnant l'activité essentielle sur le SNC.
Les composés de formule I agissent tous sur le SNC. Les produits des exemples 1-3 et 7-8 sont des agents stimulants, en revanche les produits des exemples 4-6 sont des agents sédatifs.

souris mâle [9] = assay: Pentobarbital-induced sleep duration; type: in vivo; settings: dose 32 mg/kg i.p., 0,5 h before pentobarbital
Description: Les composés selon l'invention se distinguent du benzhydrylsulfinylacétamide (CRL 40476) précité par une différence d'action vis-à-vis du sommeil barbiturique. […]. Cette différence d'action qui est intéressante sur le plan thérapeutique est illustrée par le tableau IV

souris [10] = assay: Motility reduced by habituation to the enclosure; type: in vivo; settings: dès 8 mg/kg et surtout à 32 mg/kg et 128 mg/kg i.p.
In short: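 Male mice (6 per dose, 12 controls) habituated 18 h in actimeters got compound i.p. as aqueous gum arabic suspension, 20 ml/kg. Returned to enclosures immediately; motility recorded for 30 min starting 30 min post-dose.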

rats mâles = assay: Global behaviour and reactivities, rat; type: in vivo
souris [11] = assay: Spontaneous motility (actimeter); type: in vivo; settings: 8 mg/kg, 32 mg/kg et 128 mg/kg i.p.
In short: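 Male mice dosed i.p. as a suspension in aqueous gum arabic (20 ml/kg); 30 min later they are placed in an actimeter and motility is recorded for 30 min, 6 mice per dose, 12 controls.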

souris [12] = assay: Electroshock; type: in vivo; settings: dose not stated
souris mâle [13] = assay: Toxicity, DL-0; type: in vivo; settings: i.p.
In short: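 Male mice dosed intraperitoneally with compound suspended in aqueous gum arabic at 20 ml/kg. Value is DL-0, the minimal non-lethal dose.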

souris [14] = assay: Four plates test; type: in vivo; settings: 0,5 h after administration, dose not stated
souris [15] = assay: Interaction with apomorphine, mouse; type: in vivo
In short: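 Male mice, 6 per dose, received the test compound intraperitoneally as an aqueous gum arabic suspension (20 ml/kg).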

## NC(=O)C[S+]([O-])C(c1ccc(F)cc1)c1ccc(F)cc1 (centres unmarked) [Exemple 8, 4,4'-difluorobenzhydrylsulfinylacétamide]
rats
  stéréotypies amphétaminiques: potentialisation
Souris [1]
  agressivité intergroupes (nombre de combats): n'a pas d'effet antiagressif
rat
  stéréotypies induites par l'apomorphine: augmente
homme
  action contre l'énurésie: agissent efficacement
homme; notamment vieillard, gélules ou comprimés de 100 à 200 mg, 1 à 3 par jour
  résultats en tant que médicaments de l'éveil: excellents résultats
Souris groupées
  toxicité particulière chez les souris groupées: absence de toxicité particulière
Souris [2]
  récupération motrice après séjour bref dans une enceinte à pression réduite: amélioration significative
Souris [3]
  déficit moteur (traction): ne provoque pas d'incapacité motrice majeure
Souris [4]
  hypothermie réserpinique: antagonise tardivement
Souris [4]; à 24 h
  ptôsis réserpinique: antagonise également mais de façon modérée
Souris [5]
  durée d'immobilité de la souris placée en immersion forcée: diminue nettement
Souris [6]
  délai d'apparition des convulsions et de la mort consécutives à une anoxie asphyxique: ne modifie pas
Souris [7]
  durée du sommeil barbiturique: diminue nettement
Souris [8]; 2 mg/kg, 8 mg/kg, 32 mg/kg et 128 mg/kg i.p.
  hypothermie induite par l'oxotrémorine: antagonise modérément et tardivement
Souris [8]; dose not stated
  signes de stimulation cholinergique périphérique dus à l'oxotrémorine: ne modifie pas
  tremblements induits par l'oxotrémorine: ne sont pratiquement pas modifiés
Souris mâles; souris
  signes de stimulation sympathique périphérique: absence
Souris mâles; souris, 2 mg/kg i.p.
  Observations (comportement global et réactivités): réactivité au toucher pendant 2 h
Souris mâles; souris, 8 mg/kg i.p.
  Observations (comportement global et réactivités): éxcitation tardive débutant 2 h après administration - réactivité au toucher pendant 2 h
Souris mâles; souris, 512 mg/kg i.p.
  Observations (comportement global et réactivités): démarche titubante pendant 0,75 h, - convulsions (66% des animaux) pendant 0,75 h
  mortalité: 4 animaux sur 6 en 1 h, puis 2 animaux sur 6 en 24 h
Souris mâles; souris, 512 mg/kg i.p., pendant 0,75 h
  convulsions: 66 % des animaux
Souris mâles; souris, 32 mg/kg i.p.
  Observations (comportement global et réactivités): excitation tardive débutant 1 h après administration et durant 2 h - stéréotypies 3 h après administration - réactivité au toucher pendant 24 h
Souris mâles; souris, 128 mg/kg i.p.
  Observations (comportement global et réactivités): excitation avec stéréotypies pen-dant 3 h - augmentation de la réactivité au toucher pendant 24 h - hypothermie (-1,3°C) pendant 3 h
  hypothermie: -1,3 °C
Souris mâles; souris, 256 mg/kg i.p.
  Observations (comportement global et réactivités): excitation débutant 0,5 h après adminis-tration - stéréotypies
  mortalité: pas de mortalité
Souris mâles; supposed from the late onset of several effects and the kinetic study of stereotypies
  résorption: résorption lente
SNC
  Activité sur le SNC: stimulant
  conclusion of the neuropsychopharmacological study: main type of CNS effect: composante excitante
Souris mâle [9]
  Action sur la durée du sommeil induit par le pentobarbital (50 mg/kg i.p.) effet: (a)
Souris [10]
  activité motrice chez la souris habituée à son enceinte: reprise d'activité motrice très nette
Rats mâles; 16 mg/kg i.p.
  Observations (comportement global et réactivités): excitation - réactivité au toucher pendant 2 h
Rats mâles; 64 mg/kg i.p.
  Observations (comportement global et réactivités): excitation - réactivité au toucher - fréquence respiratoire augmentée pendant 24 h
Souris [11]
  motilité spontanée: augmentation nette
Souris [12]
  effets convulsivants de l'électrochoc: ne modifie pratiquement pas
Souris mâle [13]
  DL-O: supérieure à 256 mg/kg
Souris [14]
  nombre de passages punis: n'entraîne pas d'augmentation
Souris [15]; 32 mg/kg et 128 mg/kg i.p.
  own effect on temperature: hypothermisant
Souris [15]; 32 mg/kg et 128 mg/kg i.p., apomorphine 1 et 16 mg/kg
  hypothermie induite par l'apomorphine: aggrave
Souris [15]; dose not stated
  comportement de verticalisation et stéréotypies (apomorphine): ne modifie pas
